# From paper PMC6934498, “Neferine induces autophagy-dependent cell death in apoptosis-resistant cancers via ryanodine receptor and Ca^2+-dependent mechanism” (Scientific Reports, 2019)
# Molecular target: T1, SERCA1A (sarcoplasmic/endoplasmic reticulum Ca2+ ATPase) (Oryctolagus cuniculus, UniProt P04191)
# T1 construct: gene ATP2A1; purified rabbit skeletal muscle SR membranes expressing the SERCA1A isoform
# Experiment: coupled-enzyme ATPase assay on purified SERCA1A from rabbit skeletal muscle
# Format: biochemical
# T1 sequence (P04191 1-993): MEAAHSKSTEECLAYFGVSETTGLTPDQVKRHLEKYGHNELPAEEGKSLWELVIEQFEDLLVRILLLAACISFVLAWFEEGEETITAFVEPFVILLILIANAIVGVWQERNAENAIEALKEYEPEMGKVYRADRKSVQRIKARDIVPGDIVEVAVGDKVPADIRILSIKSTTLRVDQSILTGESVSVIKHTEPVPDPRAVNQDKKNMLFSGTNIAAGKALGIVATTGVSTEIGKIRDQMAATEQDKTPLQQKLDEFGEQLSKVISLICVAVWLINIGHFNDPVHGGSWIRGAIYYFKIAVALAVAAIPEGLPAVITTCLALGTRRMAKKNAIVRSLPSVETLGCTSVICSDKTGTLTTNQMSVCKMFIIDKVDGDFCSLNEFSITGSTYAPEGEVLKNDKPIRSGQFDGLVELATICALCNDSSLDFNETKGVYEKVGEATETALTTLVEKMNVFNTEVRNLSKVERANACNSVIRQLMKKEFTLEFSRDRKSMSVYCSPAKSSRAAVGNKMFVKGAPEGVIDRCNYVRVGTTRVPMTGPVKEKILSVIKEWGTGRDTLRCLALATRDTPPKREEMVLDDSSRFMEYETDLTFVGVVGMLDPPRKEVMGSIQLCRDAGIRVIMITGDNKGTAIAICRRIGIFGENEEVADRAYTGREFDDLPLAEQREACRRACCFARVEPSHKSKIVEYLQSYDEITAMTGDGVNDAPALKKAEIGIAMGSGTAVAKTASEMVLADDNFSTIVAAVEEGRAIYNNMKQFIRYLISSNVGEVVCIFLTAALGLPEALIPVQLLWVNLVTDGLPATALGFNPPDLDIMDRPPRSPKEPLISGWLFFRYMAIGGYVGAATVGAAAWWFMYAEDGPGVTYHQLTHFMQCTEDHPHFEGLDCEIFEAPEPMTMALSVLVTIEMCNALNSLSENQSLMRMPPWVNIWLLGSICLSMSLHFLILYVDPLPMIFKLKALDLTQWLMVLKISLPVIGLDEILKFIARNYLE
smiles,measurement,value
COc1ccc(C[C@@H]2c3cc(Oc4cc(C[C@@H]5c6cc(OC)c(OC)cc6CCN5C)ccc4O)c(OC)cc3CCN2C)cc1 [neferine],IC50,320 ± 70 µM
